The nature of the data set: Photoreaction test with cholecalciferol (photostability chamber). In kind it is physicochemical. The conditions noted are these: photostability chamber, 1,200,000 LUX, 18.44 hours. As for the experimental part:
Cholecalciferol (vitamin D3) also has poor physiochemical stability and may not ensure stability with time. Generally, cholecalciferol is known to be susceptible to moisture, light, and heat. […] The amount of trans-vitamin D3 (after storage in a photostability chamber under 1,200,000 LUX for 18.44 hours) was increased by about 1.2% with respect to initial level, while the amount of vitamin D3 was reduced by about 10%.

For the compound `C=C1CC[C@H](O)C/C1=C/C=C1\CCC[C@]2(C)[C@@H]([C@H](C)CCCC(C)C)CC[C@@H]12` [cholecalciferol, Cholecalciferol], the “increase of the amount of trans-vitamin D3 with respect to initial level” value is “about 1.2%” and the “reduction of the amount of vitamin D3” value is “about 10%”.
